Data from ChEMBL document CHEMBL3526141, “Characterization of human liver enzymes involved in the biotransformation of boceprevir, a hepatitis C virus protease inhibitor” (Drug Metab Dispos, 2011).
Blank lines part the entries; values can stand above or below the compound they belong to.

Assays:
[1] = test system: Liver cytosol; assay: (§1) Drug metabolism in human liver cytosol at 20 uM assessed as (1R,2S,5S)-N-((2S,3R)-4-amino-1-cyclobutyl-3-hydroxy-4-oxobutan-2-yl)-3-((S)-2-(3-tert-butylureido)-3,3-dimethylbutanoyl)-6,6-dimethyl-3-azabicyclo[3.1.0]hexane-2-carboxamide formation in presence of BNPP by LC-MS/MS/FSA method; assay type: ADME
[2] = test system: Liver cytosol; assay: Drug metabolism in human liver cytosol at 20 uM assessed as (1R,2S,5S)-N-((2S,3R)-4-amino-1-cyclobutyl-3-hydroxy-4-oxobutan-2-yl)-3-((S)-2-(3-tert-butylureido)-3,3-dimethylbutanoyl)-6,6-dimethyl-3-azabicyclo[3.1.0]hexane-2-carboxamide formation in presence of pargyline by LC-MS/MS/FSA method; assay type: ADME
[3] = molecular target: T1, Aldo-keto reductase family 1 member C3 (Homo sapiens, UniProt P42330); assay: Activity of human recombinant AKR1C3 expressed in HEK293 cells assessed as (1R,2S,5S)-N-((2S,3R)-4-amino-1-cyclobutyl-3-hydroxy-4-oxobutan-2-yl)-3-((S)-2-(3-tert-butylureido)-3,3-dimethylbutanoyl)-6,6-dimethyl-3-azabicyclo[3.1.0]hexane-2-carboxamide formation after 120 mins in presence of NADPH by LC-MS/MS/FSA method; assay type: ADME, cell-based; conditions: hek293, 2 h
T1 sequence (P42330 whole entry): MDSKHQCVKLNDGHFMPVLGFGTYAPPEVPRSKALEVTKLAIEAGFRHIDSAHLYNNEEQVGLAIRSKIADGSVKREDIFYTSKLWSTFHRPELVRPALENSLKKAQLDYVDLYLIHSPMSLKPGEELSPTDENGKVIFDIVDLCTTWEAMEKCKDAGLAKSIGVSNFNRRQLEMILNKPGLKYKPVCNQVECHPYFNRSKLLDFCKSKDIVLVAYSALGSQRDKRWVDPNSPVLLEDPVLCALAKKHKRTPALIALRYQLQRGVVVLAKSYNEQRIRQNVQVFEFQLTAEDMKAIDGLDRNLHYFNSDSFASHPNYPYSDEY

[4] = test system: Liver cytosol; assay: as §1, with “formation at 20 uM after 60 mins” for “formation”, “co-incubation with ritonavir” for “BNPP”; assay type: ADME; conditions: 1 h
[5] = test system: Liver cytosol; assay: as §1, with “formation at 20 uM after 60 mins” for “formation”, “pre-incubation with ritonavir” for “BNPP”; assay type: ADME; conditions: 1 h
[6] = (§2) Drug metabolism in human liver S9 fraction at 20 uM assessed as (1R,2S,5S)-N-((2S,3R)-4-amino-1-cyclobutyl-3-hydroxy-4-oxobutan-2-yl)-3-((S)-2-(3-tert-butylureido)-3,3-dimethylbutanoyl)-6,6-dimethyl-3-azabicyclo[3.1.0]hexane-2-carboxamide formation in presence of pargyline by LC-MS/MS/FSA method; assay type: ADME, subcellular; conditions: s9, 20 µM
[7] = Drug metabolism in human liver S9 fraction at 20 uM assessed as (1R,2S,5S)-N-((2S,3R)-4-amino-1-cyclobutyl-3-hydroxy-4-oxobutan-2-yl)-3-((S)-2-(3-tert-butylureido)-3,3-dimethylbutanoyl)-6,6-dimethyl-3-azabicyclo[3.1.0]hexane-2-carboxamide formation in presence of allopurinol by LC-MS/MS/FSA method; assay type: ADME, subcellular; conditions: s9, 20 µM
[8] = as §2, with “flufenamic acid” for “pargyline”; assay type: ADME, subcellular; conditions: s9, 20 µM
[9] = as §2, with “phenolphthalein” for “pargyline”; assay type: ADME, subcellular; conditions: s9, 20 µM
[10] = test system: Liver cytosol; assay: Drug metabolism in human liver cytosol at 20 uM assessed as (1R,2S,5S)-N-((2S,3R)-4-amino-1-cyclobutyl-3-hydroxy-4-oxobutan-2-yl)-3-((S)-2-(3-tert-butylureido)-3,3-dimethylbutanoyl)-6,6-dimethyl-3-azabicyclo[3.1.0]hexane-2-carboxamide formation in presence of menadione by LC-MS/MS/FSA method; assay type: ADME
[11] = test system: Liver cytosol; assay: as §1, with “formation at 20 uM after 60 mins” for “formation”, “ketoconazole” for “BNPP”; assay type: ADME; conditions: 1 h
[12] = molecular target: T2, Aldo-keto reductase family 1 member C2 (Homo sapiens, UniProt P52895); assay: Drug metabolism in human recombinant AKR1C2 expressing HEK293 cells treated with 20 uM boceprevir assessed as 100 uM diazepam-mediated inhibition of AKR1C2-mediated metabolite formation after 120 mins in presence of NADPH by LC-MS/MS/FSA method; assay type: ADME, cell-based; parameters: interact cpd dose 100 uM; conditions: hek293, 2 h
T2 sequence (P52895 whole entry): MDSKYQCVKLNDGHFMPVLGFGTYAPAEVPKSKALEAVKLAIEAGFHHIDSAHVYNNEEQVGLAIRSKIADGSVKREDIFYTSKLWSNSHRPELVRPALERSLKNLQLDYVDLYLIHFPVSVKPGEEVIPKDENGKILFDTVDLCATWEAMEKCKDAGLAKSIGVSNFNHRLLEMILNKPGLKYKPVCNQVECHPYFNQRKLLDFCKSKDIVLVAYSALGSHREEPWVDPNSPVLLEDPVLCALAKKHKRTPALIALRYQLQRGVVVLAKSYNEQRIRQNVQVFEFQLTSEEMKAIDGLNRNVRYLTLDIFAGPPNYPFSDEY

[13] = molecular target: T1, Aldo-keto reductase family 1 member C3; assay: Drug metabolism in human recombinant […] HEK293 cells treated with 20 uM boceprevir assessed as 1 mM BNPP-mediated inhibition of AKR1C3-mediated metabolite formation after 120 mins in presence of NADPH by LC-MS/MS/FSA method; assay type: ADME, cell-based; parameters: interact cpd dose 1 mM; conditions: hek293, 2 h
[14] = Drug metabolism in human liver mitochondria treated with 20 uM assessed as compound formation in presence of NADPH generating system by LC-MS/MS/FSA method; assay type: ADME
[15] = test system: Liver cytosol; assay: Drug metabolism in human liver cytosol treated with 20 uM [14C]SCH 534128 assessed as 100 uM diazepam-mediated inhibition of metabolite formation LC-MS/MS/FSA method; assay type: ADME, tissue-based; parameters: interact cpd dose 100 uM
[16] = test system: Liver cytosol; assay: Drug metabolism in human liver cytosol treated with 20 uM [14C]boceprevir assessed as quercetin-mediated inhibition of metabolite formation by LC-MS/MS/FSA method; assay type: ADME, tissue-based
[17] = test system: Liver cytosol; assay: Drug metabolism in human liver cytosol assessed as (1R,2S,5S)-N-((2R,3R)-4-amino-1-cyclobutyl-3-hydroxy-4-oxobutan-2-yl)-3-((S)-2-(3-tert-butylureido)-3,3-dimethylbutanoyl)-6,6-dimethyl-3-azabicyclo[3.1.0]hexane-2-carboxamide formation per mg protein after 60 mins by LC-MS/MS/FSA method; assay type: ADME, tissue-based; conditions: 1 h
[18] = test system: Liver cytosol; assay: Drug metabolism in human liver cytosol at 20 uM assessed as (1R,2S,5S)-N-((2R,3R)-4-amino-1-cyclobutyl-3-hydroxy-4-oxobutan-2-yl)-3-((S)-2-(3-tert-butylureido)-3,3-dimethylbutanoyl)-6,6-dimethyl-3-azabicyclo[3.1.0]hexane-2-carboxamide formation in presence of flufenamic acid by LC-MS/MS/FSA method; assay type: ADME
[19] = test system: Liver microsome; assay: Drug metabolism in human liver microsomes treated with 5 uM [14C]boceprevir assessed as compound formation by LC-MS/FSA method relative to total [14C]boceprevir; assay type: ADME

Compound recovery [1]: metabolite_not_detected
Compound recovery [2]: metabolite_detected
Km [3]: 43.5 µM
Compound recovery [4]: metabolite_detected
Compound recovery [5]: metabolite_detected
Compound recovery [6]: metabolite_detected
Compound recovery [7]: metabolite_detected
Compound recovery [8]: metabolite_not_detected
Compound recovery [9]: metabolite_not_detected
Compound recovery [10]: metabolite_not_detected
Compound recovery [11]: metabolite_detected
SMILES: CC(C)(C)NC(=O)N[C@H](C(=O)N1C[C@H]2[C@@H]([C@H]1C(=O)NC(CC1CCC1)C(=O)C(N)=O)C2(C)C)C(C)(C)C (some centres undefined) [BOCEPREVIR]

inhibition (INH) [12]: > 89%
inhibition (INH) [13]: 69%
Compound recovery [14]: 7%
inhibition (INH) [15]: 72.9%
inhibition (INH) [16]: < 30%
SMILES: CC(C)(C)NC(=O)N[C@H](C(=O)N1C[C@H]2[C@@H]([C@H]1C(=O)N[C@@H](CC1CCC1)[C@@H](O)C(N)=O)C2(C)C)C(C)(C)C

Vmax [17]: 0.846 pmol/min
Compound recovery [18]: metabolite_not_detected
Compound recovery [19]: 0.31%
SMILES: CC(C)(C)NC(=O)N[C@H](C(=O)N1C[C@H]2[C@@H]([C@H]1C(=O)N[C@H](CC1CCC1)C(=O)C(N)=O)C2(C)C)C(C)(C)C
